According to ChEMBL document CHEMBL1201862, “PubChem BioAssay data set” (2004):
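1) Cells in 96-well plates. 2) Compound, 48 h, 5 concentrations. 3) Linear interpolation between surrounding doses. 4) Unreached endpoint = highest concentration. The concentration for 50% growth inhibition is given as GI50.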 Calls of active or inactive are those of the source. Rule as the data show it: active = GI50 up to about 1.1 µM and inactive = higher.

Key:
Assay in all cases: NCI-60 cell line screen, 48 h
SK-OV-3 = tested on: SK-OV-3
A549 = tested on: A549
SK-MEL-2 = tested on: SK-MEL-2
OVCAR-5 = tested on: OVCAR-5
KM-20L2 = tested on: KM-20L2
DLD-1 = tested on: DLD-1
NCI-H226 = tested on: NCI-H226
SNB-75 = tested on: SNB-75
SW-620 = tested on: SW-620
NCI-H460 = tested on: NCI-H460
CAKI-1 = tested on: CAKI-1
Malme-3M = tested on: Malme-3M
SN12C = tested on: SN12C
RXF 393 = tested on: RXF 393
M14 = tested on: M14
LXFL 529 = tested on: LXFL 529
IGROV-1 = tested on: IGROV-1
HL-60 = tested on: HL-60
OVCAR-3 = tested on: OVCAR-3
CCRF-CEM = tested on: CCRF-CEM
TK-10 = tested on: TK-10
NCI-H23 = tested on: NCI-H23
EKVX = tested on: EKVX
KM12 = tested on: KM12
786-0 = tested on: 786-0
U-251 = tested on: U-251
A498 = tested on: A498
UACC-257 = tested on: UACC-257
SK-MEL-5 = tested on: SK-MEL-5
SF-268 = tested on: SF-268
HCT-116 = tested on: HCT-116
HOP-18 = tested on: HOP-18
NCI-H522 = tested on: NCI-H522
HCT-15 = tested on: HCT-15
DMS-273 = tested on: DMS-273
OVCAR-4 = tested on: OVCAR-4
UACC-62 = tested on: UACC-62
COLO 205 = tested on: COLO 205
SK-MEL-28 = tested on: SK-MEL-28
ACHN = tested on: ACHN
SF-539 = tested on: SF-539
K562 = tested on: K562
DMS-114 = tested on: DMS-114
HOP-62 = tested on: HOP-62
OVCAR-8 = tested on: OVCAR-8
M19-MEL = tested on: M19-MEL
SF-295 = tested on: SF-295
MOLT-4 = tested on: MOLT-4
XF498 = tested on: XF498
HCC 2998 = tested on: HCC 2998
HT-29 = tested on: HT-29
LOX IMVI = tested on: LOX IMVI
SNB-19 = tested on: SNB-19
SNB-78 = tested on: SNB-78
RPMI-8226 = tested on: RPMI-8226
UO-31 = tested on: UO-31
HOP-92 = tested on: HOP-92
MCF7 = tested on: MCF7
NCI/ADR-RES = tested on: NCI/ADR-RES

Measured: GI50

COC1OC2COC(C)(C)OC2C(OC(C)=O)C1NC(=O)N(CCCl)N=O (stereo not given)
> 100 µM: HCT-15
inactive: SK-OV-3 > 100 µM | A549 83 µM | SK-MEL-2 > 100 µM | OVCAR-5 > 100 µM | KM-20L2 > 100 µM | DLD-1 > 100 µM | NCI-H226 47 µM | SNB-75 29.1 µM | SW-620 > 100 µM | NCI-H460 46.7 µM | CAKI-1 > 100 µM | Malme-3M > 100 µM | SN12C > 100 µM | RXF 393 > 100 µM | M14 > 100 µM | LXFL 529 > 100 µM | IGROV-1 > 100 µM | HL-60 11.2 µM | OVCAR-3 > 100 µM | CCRF-CEM 24.3 µM | TK-10 > 100 µM | NCI-H23 > 100 µM | EKVX > 100 µM | KM12 > 100 µM | 786-0 59.4 µM | U-251 33.7 µM | A498 > 100 µM | UACC-257 > 100 µM | SK-MEL-5 > 100 µM | SF-268 8.65 µM | HCT-116 > 100 µM | HOP-18 > 100 µM | NCI-H522 11.7 µM | DMS-273 > 100 µM | OVCAR-4 > 100 µM | UACC-62 19.3 µM | COLO 205 > 100 µM | SK-MEL-28 > 100 µM | ACHN > 100 µM | SF-539 21.4 µM | K562 54.8 µM | DMS-114 > 100 µM | HOP-62 48.1 µM | OVCAR-8 > 100 µM | M19-MEL > 100 µM | SF-295 28.8 µM | MOLT-4 59.6 µM | XF498 > 100 µM | HCC 2998 > 100 µM | HT-29 > 100 µM | LOX IMVI 28.7 µM | SNB-19 46 µM | SNB-78 > 100 µM

COc1ccc(-c2nc3ccc([N+](=O)[O-])cc3c(=O)[nH]2)cc1
> 100 µM: HCT-15
inactive: SK-OV-3 13.6 µM | A549 53.2 µM | SK-MEL-2 30.3 µM | OVCAR-5 > 100 µM | RPMI-8226 > 61.4 µM | KM-20L2 > 100 µM | DLD-1 88.3 µM | UO-31 61.9 µM | NCI-H226 23.2 µM | SNB-75 12.7 µM | SW-620 > 100 µM | NCI-H460 > 80 µM | CAKI-1 28.8 µM | HOP-92 22 µM | SN12C 66.4 µM | RXF 393 26.4 µM | IGROV-1 25.1 µM | HL-60 > 100 µM | OVCAR-3 28.4 µM | CCRF-CEM > 100 µM | NCI-H23 29.3 µM | EKVX 66.1 µM | KM12 > 100 µM | U-251 24.6 µM | A498 29.3 µM | UACC-257 > 96.2 µM | SK-MEL-5 > 100 µM | SF-268 20.4 µM | HCT-116 27.4 µM | HOP-18 > 62.4 µM | NCI-H522 26.9 µM | DMS-273 48.4 µM | OVCAR-4 12.9 µM | UACC-62 37.7 µM | COLO 205 > 100 µM | SK-MEL-28 > 100 µM | SF-539 14.5 µM | K562 > 100 µM | DMS-114 33 µM | HOP-62 > 45.6 µM | MCF7 46.5 µM | OVCAR-8 21.1 µM | M19-MEL > 100 µM | SF-295 23.8 µM | MOLT-4 > 100 µM | XF498 22.7 µM | HCC 2998 > 100 µM | HT-29 > 100 µM | LOX IMVI 30.5 µM | SNB-19 20.4 µM | NCI/ADR-RES 34 µM | SNB-78 19.9 µM

ClCCCCOC1CCCCO1 (stereo not given)
> 100 µM: HCT-15
inactive: SK-OV-3 > 100 µM | A549 > 100 µM | SK-MEL-2 > 100 µM | OVCAR-5 > 100 µM | KM-20L2 > 100 µM | DLD-1 > 100 µM | UO-31 > 100 µM | NCI-H226 > 100 µM | SNB-75 > 100 µM | SW-620 > 100 µM | NCI-H460 > 100 µM | CAKI-1 > 100 µM | Malme-3M > 100 µM | HOP-92 > 100 µM | SN12C > 100 µM | RXF 393 > 100 µM | M14 > 100 µM | LXFL 529 > 100 µM | IGROV-1 > 100 µM | HL-60 > 100 µM | OVCAR-3 > 100 µM | TK-10 > 100 µM | NCI-H23 > 100 µM | EKVX > 100 µM | KM12 > 100 µM | 786-0 > 100 µM | U-251 > 100 µM | A498 > 100 µM | UACC-257 > 100 µM | SK-MEL-5 > 100 µM | SF-268 > 100 µM | HCT-116 > 100 µM | HOP-18 > 100 µM | NCI-H522 > 100 µM | DMS-273 > 100 µM | OVCAR-4 > 100 µM | UACC-62 > 100 µM | COLO 205 > 100 µM | SK-MEL-28 > 100 µM | ACHN > 100 µM | SF-539 > 100 µM | DMS-114 > 100 µM | HOP-62 > 100 µM | OVCAR-8 > 100 µM | M19-MEL > 100 µM | SF-295 > 100 µM | MOLT-4 > 100 µM | XF498 > 100 µM | HCC 2998 > 100 µM | HT-29 > 100 µM | SNB-19 > 100 µM | SNB-78 > 100 µM
